Data as given in paper PMC2880635 (Biochemistry, 2009).
Numbering of substitutions follows the chain as printed.

Tests used:
[1] = target: Sts-1PGM (Mus musculus, UniProt Q8BGG7); experiment: pNPP hydrolysis by Sts-1PGM; format: biochemical; settings: substrate pNPP
[2] = target: T1, Sts-2PGM(A446S/S552A) (Mus musculus, UniProt Q3V3E1, A446S/S552A); experiment: pNPP hydrolysis by Sts-2PGM; format: biochemical; settings: substrate pNPP, pH 7.5, relative to Sts-2PGM
T1 sequence (Q3V3E1 354-624 A446S/S552A): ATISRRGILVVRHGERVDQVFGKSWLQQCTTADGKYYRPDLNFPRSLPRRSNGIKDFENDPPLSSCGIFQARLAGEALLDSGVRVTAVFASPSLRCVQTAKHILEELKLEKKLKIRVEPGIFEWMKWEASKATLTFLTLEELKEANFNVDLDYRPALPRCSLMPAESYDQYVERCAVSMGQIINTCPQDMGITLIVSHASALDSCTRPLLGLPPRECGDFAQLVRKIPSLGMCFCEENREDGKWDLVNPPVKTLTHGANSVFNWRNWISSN

[3] = target: T2, Sts-2PGM(E481V) (Mus musculus, UniProt Q3V3E1, E481V); experiment: pNPP hydrolysis by Sts-2PGM; format: biochemical; settings: substrate pNPP
T2 sequence (Q3V3E1 354-624 E481V): T1 sequence (Q3V3E1 354-624 A446S/S552A) with S93A, E128V, A199S

[4] = target: T3, Sts-2PGM(S552A/S582Y) (Mus musculus, UniProt Q3V3E1, S552A/S582Y); experiment: pNPP hydrolysis by Sts-2PGM; format: biochemical; settings: substrate pNPP
T3 sequence (Q3V3E1 354-624 S552A/S582Y): T1 sequence (Q3V3E1 354-624 A446S/S552A) with S93A, S229Y

[5] = target: T4, Sts-2PGM (Mus musculus, UniProt Q3V3E1); experiment: pNPP hydrolysis by wild-type Sts-2PGM; format: biochemical; settings: substrate pNPP, Sts-2PGM wild-type
T4 sequence (Q3V3E1 354-624): T1 sequence (Q3V3E1 354-624 A446S/S552A) with S93A, A199S

[6] = target: T4, Sts-2PGM; experiment: biochemical

Chain of Sts-1PGM (Q8BGG7 369-638 limits assumed): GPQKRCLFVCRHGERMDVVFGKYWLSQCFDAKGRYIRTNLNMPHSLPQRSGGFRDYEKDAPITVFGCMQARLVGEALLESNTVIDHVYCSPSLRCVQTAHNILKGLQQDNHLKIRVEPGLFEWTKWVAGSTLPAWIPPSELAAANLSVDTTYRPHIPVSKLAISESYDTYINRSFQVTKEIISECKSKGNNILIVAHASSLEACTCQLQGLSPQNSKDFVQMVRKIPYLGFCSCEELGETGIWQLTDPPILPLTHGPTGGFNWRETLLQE

## O=[N+]([O-])c1ccc(OP(=O)(O)O)cc1 [pNPP, p-nitrophenyl phosphate]
[1]; pH 5.0, 37 °C
  kcat: 63.4 s⁻¹
[1]; pH 5.0, relative to Sts-2PGM
  relative activity: 210000%
[1]; pH 7.5, 37 °C
  kcat: 70 s⁻¹
[1]; pH 7.5, relative to Sts-2PGM
  relative activity: 9400%
[2]
  relative activity: 28%
[3]; pH 5.0, relative to Sts-2PGM
  relative activity: 207%
[3]; pH 7.5, relative to Sts-2PGM
  relative activity: 10%
[4]; pH 5.0, 37 °C
  Km: 600 µM
  kcat: 2.9 s⁻¹
[4]; pH 5.0, relative to Sts-2PGM
  relative activity: 312%
[5]; pH 5.0, 37 °C
  kcat: 0.3 s⁻¹
[5]; pH 5.0, relative to Sts-2PGM
  relative activity: 13.0%
[5]; pH 7.5 (reference)
  relative activity: 1%

## O=P(O)(O)O [phosphate]
[6]
  IC50: 52 ± 6.2 mM
  Ki: 35.1 ± 4.1 mM

## [O]=[W](=[O])([OH])[OH] [tungstate, sodium tungstate]
[6]
  IC50: 0.82 ± 0.1 mM
  Ki: 0.54 ± 0.07 mM

## [O]=[V]([OH])([OH])[OH] [vanadate, sodium vanadate]
[6]
  IC50: 5.3 ± 3.3 mM
  Ki: 3.55 ± 2.3 mM
